pEC50, pIC50: −log10 of the molar value.
Key:
[1] = test system: NCI-H358 human non-small cell lung cancer; experiment: NCI-H358 CCK-8 proliferation assay; format: cell-based; conditions: NCI-H358 cells, 72 hr
Outline: (§1)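 KRAS(G12C) lines were used: MIA PaCa-2 with 2 copies, and NCI-H358 and NCI-H23 with 1 copy each. Cells were treated with 3-fold compound dilutions from 20 μM to 1.02 nM, and proliferation was read by CCK-8 absorbance. % inhibition was calculated against DMSO-treated cells after subtracting the cell-free medium blank.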

[2] = test system: NCI-H23 human non-small cell lung cancer; experiment: NCI-H23 CCK-8 proliferation assay; format: cell-based; conditions: NCI-H23 cells, 72 hr
Protocol: The following cancer cell lines were employed: BT-474 human breast carcinoma (ATCC, #HTB-20); MIA PaCa-2 human pancreatic carcinoma [2 copies KRAS(G12C)](ATCC, #CRL-1420); NCI-H23 human non-small cell lung cancer [1 copy KRAS(G12C)](ATCC, #CRL-5800); NCI-H358 human non-small cell lung cancer [1 copy KRAS(G12C)](ATCC, #CRL-5807); LU65A human lung carcinoma (Pharmaron, Beijing, China). Cell lines were cultured essentially according to ATCC and Pharmaron recommendations.
Cancer Cell Line Proliferation (CCK-8) Assays
3-fold serial dilutions of each test compound were prepared ranging from 20 μM to 1.02 nM.
% Inhibition=100−(D−B)/(S−B)*100%. • S: Absorbance of cells treated with DMSO • D: Absorbance of compound-treated cells • B: Absorbance of medium with DMSO without cells

[3] = test system: MIA PaCa-2 human pancreatic carcinoma; experiment: MIA PaCa-2 CCK-8 proliferation assay; format: cell-based; conditions: Homo sapiens, MIA PaCa-2, 72 h, MIA PaCa-2 cells
Outline: as §1

HSP90a protein = target: T1, HSP90a protein (Homo sapiens, UniProt P07900); experiment: HSP90α-binding fluorescent polarization (FP) assay, BODIPY-labeled RNK04010 probe; conditions: FP competition with RNK04010 (BODIPY-labeled), 5 nM, 300 min at 25° C.
T1 construct: purchased BPS Bioscience 50298
Outline: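 Compounds (20 μM down to 5.2 nM, 2.5-fold steps) compete with a 5 nM fluorescent tracer for N-terminal HSP90a, measured by fluorescence polarization. With FITC-geldanamycin, plates sit 120 min at 25 °C. With BODIPY-RNK04010, they sit 300 min at 25 °C.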

Structure (SMILES) | pEC50 [1] | pEC50 [2] | pEC50 [3] | pIC50 (HSP90a protein)
CC(=O)N1CCN(c2nc(NCCC(=O)N3CCC(Cc4ccc(CN(C)Cc5ccc(-n6c(C(=O)NCC(F)(F)F)nnc6-c6cc(C(C)C)c(O)cc6O)cc5)cc4)CC3)nc3c2CCN(c2cc(O)cc4ccccc24)C3)CC1 [Compound 112, 4-(4-(((4-((1-(3-((4-(4-acetylpiperazin-1-yl)-7-(3-hydroxynaphthalen-1-yl)-5,6,7,8-tetrahydropyrido[3,4-d]pyrimidin-2-yl)amino)propanoyl)piperidin-4-yl)methyl)benzyl)(methyl)amino)methyl)phenyl)-5-(2,4-dihydroxy-5-isopropylphenyl)-N-(2,2,2-trifluoroethyl)-4H-1,2,4-triazole-3-carboxamide, trifluoroacetic acid] | 6.00 to 7.00 | 6.00 to 7.00 | 6.00 to 7.00 | 6.00 to 7.00
CCC(=O)N1CCN(c2nc(NCCC(=O)N3CCC(CN4CCN(Cc5ccc(-n6c(C(=O)NC7(C)CC7)nnc6-c6cc(CC)c(O)cc6O)cc5)CC4)CC3)nc3c2CCN(c2cc(O)cc4ccccc24)C3)CC1 [Compound 120, 5-(5-ethyl-2,4-dihydroxyphenyl)-4-(4-((4-((1-(3-((7-(3-hydroxynaphthalen-1-yl)-4-(4-propionylpiperazin-1-yl)-5,6,7,8-tetrahydropyrido[3,4-d]pyrimidin-2-yl)amino)propanoyl)piperidin-4-yl)methyl)piperazin-1-yl)methyl)phenyl)-N-(1-methylcyclopropyl)-4H-1,2,4-triazole-3-carboxamide, trifluoroacetic acid] | > 7.00 | 6.00 to 7.00 | 6.00 to 7.00 | 6.00 to 7.00
CCC(=O)N1CCN(c2nc(N3CCC(CN4CCN(Cc5ccc(-n6c(O)nnc6-c6cc(C(C)C)c(O)cc6O)cc5)CC4)CC3)nc3c2CCN(c2cccc4cccc(Cl)c24)C3)C[C@@H]1CC#N [Compound 128, (S)-2-(4-(7-(8-chloronaphthalen-1-yl)-2-(4-((4-(4-(3-(2,4-dihydroxy-5-isopropylphenyl)-5-hydroxy-4H-1,2,4-triazol-4-yl)benzyl)piperazin-1-yl)methyl)piperidin-1-yl)-5,6,7,8-tetrahydropyrido[3,4-d]pyrimidin-4-yl)-1-propionylpiperazin-2-yl)acetonitrile] | 6.00 to 7.00 | 6.00 to 7.00 |  | 6.00 to 7.00
C=CC(=O)N1CCN(c2nc(NCCC(=O)N3CCC(CN4CCN(Cc5ccc(-n6c(O)nnc6-c6cc(C(C)C)c(O)cc6O)cc5)CC4)CC3)nc3c2CCN(c2cccc4ccccc24)C3)C[C@H]1CC#N [Compound 78, (R)-2-(1-acryloyl-4-(2-((3-(4-((4-(4-(3-(2,4-dihydroxy-5-isopropylphenyl)-5-hydroxy-4H-1,2,4-triazol-4-yl)benzyl)piperazin-1-yl)methyl)piperidin-1-yl)-3-oxopropyl)amino)-7-(naphthalen-1-yl)-5,6,7,8-tetrahydropyrido[3,4-d]pyrimidin-4-yl)piperazin-2-yl)acetonitrile] | 6.00 to 7.00 | 6.00 to 7.00 |  | > 7.00
C=CC(=O)N1CCN(c2nc(NCCC(=O)N3CCC(CN4CCN(Cc5ccc(-n6c(O)nnc6-c6cc(C(C)C)c(O)cc6O)cc5)CC4)CC3)nc3c2CCN(c2cccc4cccc(Cl)c24)C3)C[C@H]1CC#N [Compound 87, (R)-2-(1-acryloyl-4-(7-(8-chloronaphthalen-1-yl)-2-((3-(4-((4-(4-(3-(2,4-dihydroxy-5-isopropylphenyl)-5-hydroxy-4H-1,2,4-triazol-4-yl)benzyl)piperazin-1-yl)methyl)piperidin-1-yl)-3-oxopropyl)amino)-5,6,7,8-tetrahydropyrido[3,4-d]pyrimidin-4-yl)piperazin-2-yl)acetonitrile, trifluoroacetic acid] | 6.00 to 7.00 | 6.00 to 7.00 |  | 6.00 to 7.00
CCC(=O)N1CCN(c2nc(NCCC(=O)N3CCC(CN4CCN(Cc5ccc(-n6c(C(=O)NC7CC7)nnc6-c6cc(CC)c(O)cc6O)cc5)CC4)CC3)nc3c2CCN(c2cc(O)cc4ccccc24)C3)CC1 [Compound 116, N-cyclopropyl-5-(5-ethyl-2,4-dihydroxyphenyl)-4-(4-((4-((1-(3-((7-(3-hydroxynaphthalen-1-yl)-4-(4-propionylpiperazin-1-yl)-5,6,7,8-tetrahydropyrido[3,4-d]pyrimidin-2-yl)amino)propanoyl)piperidin-4-yl)methyl)piperazin-1-yl)methyl)phenyl)-4H-1,2,4-triazole-3-carboxamide, trifluoroacetic acid] | 6.00 to 7.00 | 6.00 to 7.00 | 6.00 to 7.00 | > 7.00
C=CC(=O)N1CCN(c2nc(NCCC(=O)N3CCC(CN4CCN(Cc5ccc(-n6c(C(N)=O)nnc6-c6cc(CC)c(O)cc6O)cc5)CC4)CC3)nc3c2CCN(c2cccc4ccccc24)C3)C[C@H]1CC#N [Compound 98, (R)-4-(4-((4-((1-(3-((4-(4-acryloyl-3-(cyanomethyl)piperazin-1-yl)-7-(naphthalen-1-yl)-5,6,7,8-tetrahydropyrido[3,4-d]pyrimidin-2-yl)amino)propanoyl)piperidin-4-yl)methyl)piperazin-1-yl)methyl)phenyl)-5-(5-ethyl-2,4-dihydroxyphenyl)-4H-1,2,4-triazole-3-carboxamide, trifluoroacetic acid] | 6.00 to 7.00 | 6.00 to 7.00 |  | > 7.00

Results, then the compound that gave them:

pEC50 [1] | pEC50 [2] | pEC50 [3] | pIC50 (HSP90a protein) | Structure (SMILES)
> 7.00 | 6.00 to 7.00 | 6.00 to 7.00 | > 7.00 | CCNC(=O)c1nnc(-c2cc(CC)c(O)cc2O)n1-c1ccc(CN2CCN(CC3CCN(C(=O)CCNc4nc5c(c(N6CCN(C(=O)CC)CC6)n4)CCN(c4cc(O)cc6ccccc46)C5)CC3)CC2)cc1 [Compound 121, N-ethyl-5-(5-ethyl-2,4-dihydroxyphenyl)-4-(4-((4-((1-(3-((7-(3-hydroxynaphthalen-1-yl)-4-(4-propionylpiperazin-1-yl)-5,6,7,8-tetrahydropyrido[3,4-d]pyrimidin-2-yl)amino)propanoyl)piperidin-4-yl)methyl)piperazin-1-yl)methyl)phenyl)-4H-1,2,4-triazole-3-carboxamide, trifluoroacetic acid]
6.00 to 7.00 | 6.00 to 7.00 |  | 6.00 to 7.00 | C=CC(=O)N1CCN(c2nc(NCCC(=O)N3CCN(Cc4ccc(CN(C)Cc5ccc(-n6c(C(=O)NCC(F)(F)F)nnc6-c6cc(C(C)C)c(O)cc6O)cc5)cc4)CC3)nc3c2CCN(c2cccc4ccccc24)C3)C[C@H]1CC#N [Compound 109, (R)-4-(4-(((4-((4-(3-((4-(4-acryloyl-3-(cyanomethyl)piperazin-1-yl)-7-(naphthalen-1-yl)-5,6,7,8-tetrahydropyrido[3,4-d]pyrimidin-2-yl)amino)propanoyl)piperazin-1-yl)methyl)benzyl)(methyl)amino)methyl)phenyl)-5-(2,4-dihydroxy-5-isopropylphenyl)-N-(2,2,2-trifluoroethyl)-4H-1,2,4-triazole-3-carboxamide, trifluoroacetic acid]
6.00 to 7.00 | 6.00 to 7.00 | 6.00 to 7.00 | > 7.00 | CC(=O)N1CCN(c2nc(NCCC(=O)N3CCC(CN4CCN(Cc5ccc(-n6c(O)nnc6-c6cc(C(C)C)c(O)cc6O)cc5)CC4)CC3)nc3c2CCN(c2cc(O)cc4ccccc24)C3)CC1 [Compound 21, 3-((4-(4-acetylpiperazin-1-yl)-7-(3-hydroxynaphthalen-1-yl)-5,6,7,8-tetrahydropyrido[3,4-d]pyrimidin-2-yl)amino)-1-(4-((4-(4-(3-(2,4-dihydroxy-5-isopropylphenyl)-5-hydroxy-4H-1,2,4-triazol-4-yl)benzyl)piperazin-1-yl)methyl)piperidin-1-yl)propan-1-one, trifluoroacetic acid]
6.00 to 7.00 | 6.00 to 7.00 |  | < 6.00 | CCc1cc(-c2nnc(C(=O)NCC(F)(F)F)n2-c2ccc(CN(C)Cc3ccc(CC4CCN(C(=O)CCNc5nc6c(c(N7CCN(C(C)=O)[C@H](CC#N)C7)n5)CCN(c5cccc7ccccc57)C6)CC4)cc3)cc2)c(O)cc1O [Compound 118, (R)-4-(4-(((4-((1-(3-((4-(4-acetyl-3-(cyanomethyl)piperazin-1-yl)-7-(naphthalen-1-yl)-5,6,7,8-tetrahydropyrido[3,4-d]pyrimidin-2-yl)amino)propanoyl)piperidin-4-yl)methyl)benzyl)(methyl)amino)methyl)phenyl)-5-(5-ethyl-2,4-dihydroxyphenyl)-N-(2,2,2-trifluoroethyl)-4H-1,2,4-triazole-3-carboxamide, trifluoroacetic acid]
